Values after ≈ are worked out from the molar mass of the structure shown. Where two headings read alike, the source gives them in different places.
Columns and labels:
Experiment in all cases: MIC, broth microdilution
E. coli GC 2271 = conditions: Escherichia coli
S. aureus GC 6469 = conditions: Staphylococcus aureus
S. agalactiae GC 4564 = conditions: Streptococcus agalactiae
E. coli GC 1073 = conditions: Escherichia coli
S. pneumoniae+ GC 4465 = conditions: Streptococcus pneumoniae
E. coli GC 2232 = conditions: Escherichia coli
S. aureus GC 6335 = conditions: Staphylococcus aureus
P. aeruginosa GC 2214 = conditions: Pseudomonas aeruginosa
Procedure: (§1) Antimicrobial susceptibility testing. The in vitro activities of the antibiotics are determined by the broth microdilution method as recommended by the National Committee for Clinical Laboratory Standards (NCCLS) (1). Mueller-Hinton II broth (MHBII)(BBL Cockeysville, Md.) is the medium employed in the testing procedures. Microtiter plates containing serial dilutions of each antimicrobial agent are inoculated with each organism to yield the appropriate density (10^5 CFU/ml) in a 100 μl final volume. The plates are incubated for 18-22 hours at 35° C. in ambient air.
(§2) Representative compounds were first incubated in mouse serum for an hour prior to the in vitro testing against a panel of selected gram-positive and gram-negative bacteria strains. All compounds were also pre-incubated in water for an hour prior to testing as control.

c. albicans GC 3066 = test system: c. albicans GC 3066
E. faecalis GC 2265 = conditions: Enterococcus faecalis
S. pyogenes GC 4563 = conditions: Streptococcus pyogenes
S. aureus GC 2216 = conditions: Staphylococcus aureus
E. coli GC 4559 = conditions: Escherichia coli
E. coli GC 3226 = conditions: Escherichia coli
E. faecalis GC 2242 = conditions: Enterococcus faecalis
E. coli GC 2270 = conditions: Escherichia coli
S. aureus GC 4536 = conditions: Staphylococcus aureus
E. faecium GC 2243 = conditions: Enterococcus faecium
Procedure: as §1, §2

SMILES: COC(=O)N(CC(=O)Nc1cc(N(C)C)c2c(c1O)C(=O)C1=C(O)[C@]3(O)C(=O)C(C(N)=O)=C(O)[C@@H](N(C)C)[C@@H]3C[C@@H]1C2)C(C)(C)C [Example 60, methyl 2-{[(5aR,6aS,7S,10aS)-9-(aminocarbonyl)-4,7-bis(dimethylamino)-1,8,10a,11-tetrahydroxy-10,12-dioxo-5,5a,6,6a,7,10,10a,12-octahydrotetracen-2-yl]amino}-2-oxoethyl(tert-butyl)carbamate]
- MIC (E. coli GC 2271; GC2271, read-out: MINIMAL INHIBITORY CONCENTRATION MIC, Human Serum): 64 µg/mL (≈ 99.4 µM)
- MIC (E. coli GC 2271; GC2271, read-out: MINIMAL INHIBITORY CONCENTRATION MIC, Mouse Serum): 64 µg/mL (≈ 99.4 µM)
- MIC (E. coli GC 2271; GC2271, read-out: MINIMAL INHIBITORY CONCENTRATION MIC, Water): > 64 µg/mL
- MIC (S. aureus GC 6469; GC6469, read-out: MINIMAL INHIBITORY CONCENTRATION MIC, Human Serum): 2 µg/mL (≈ 3.11 µM)
- MIC (S. aureus GC 6469; GC6469, read-out: MINIMAL INHIBITORY CONCENTRATION MIC, Mouse Serum): 2 µg/mL (≈ 3.11 µM)
- MIC (S. aureus GC 6469; GC6469, read-out: MINIMAL INHIBITORY CONCENTRATION MIC, Water): 4 µg/mL (≈ 6.21 µM)
- MIC (S. agalactiae GC 4564; GC4564, read-out: MINIMAL INHIBITORY CONCENTRATION MIC, Human Serum): 4 µg/mL (≈ 6.21 µM)
- MIC (S. agalactiae GC 4564; GC4564, read-out: MINIMAL INHIBITORY CONCENTRATION MIC, Mouse Serum): 4 µg/mL (≈ 6.21 µM)
- MIC (S. agalactiae GC 4564; GC4564, read-out: MINIMAL INHIBITORY CONCENTRATION MIC, Water): 4 µg/mL (≈ 6.21 µM)
- MIC (E. coli GC 1073; GC1073, read-out: MINIMAL INHIBITORY CONCENTRATION MIC, Human Serum): > 64 µg/mL
- MIC (E. coli GC 1073; GC1073, read-out: MINIMAL INHIBITORY CONCENTRATION MIC, Mouse Serum): > 64 µg/mL
- MIC (E. coli GC 1073; GC1073, read-out: MINIMAL INHIBITORY CONCENTRATION MIC, Water): > 64 µg/mL
- MIC (S. pneumoniae+ GC 4465; read-out: MINIMAL INHIBITORY CONCENTRATION MIC, Human Serum): 2 µg/mL (≈ 3.11 µM)
- MIC (S. pneumoniae+ GC 4465; read-out: MINIMAL INHIBITORY CONCENTRATION MIC, Mouse Serum): 4 µg/mL (≈ 6.21 µM)
- MIC (S. pneumoniae+ GC 4465; read-out: MINIMAL INHIBITORY CONCENTRATION MIC, Water): 4 µg/mL (≈ 6.21 µM)
- MIC (E. coli GC 2232; GC2232, read-out: MINIMAL INHIBITORY CONCENTRATION MIC, Human Serum): > 64 µg/mL
- MIC (E. coli GC 2232; GC2232, read-out: MINIMAL INHIBITORY CONCENTRATION MIC, Mouse Serum): > 64 µg/mL
- MIC (E. coli GC 2232; GC2232, read-out: MINIMAL INHIBITORY CONCENTRATION MIC, Water): > 64 µg/mL
- MIC (S. aureus GC 6335; GC6335, read-out: MINIMAL INHIBITORY CONCENTRATION MIC, Human Serum): 8 µg/mL (≈ 12.4 µM)
- MIC (S. aureus GC 6335; GC6335, read-out: MINIMAL INHIBITORY CONCENTRATION MIC, Mouse Serum): 8 µg/mL (≈ 12.4 µM)
- MIC (S. aureus GC 6335; GC6335, read-out: MINIMAL INHIBITORY CONCENTRATION MIC, Water): 8 µg/mL (≈ 12.4 µM)
- MIC (P. aeruginosa GC 2214; GC2214, read-out: MINIMAL INHIBITORY CONCENTRATION MIC, Human Serum): > 64 µg/mL
- MIC (P. aeruginosa GC 2214; GC2214, read-out: MINIMAL INHIBITORY CONCENTRATION MIC, Mouse Serum): > 64 µg/mL
- MIC (P. aeruginosa GC 2214; GC2214, read-out: MINIMAL INHIBITORY CONCENTRATION MIC, Water): > 64 µg/mL
- MIC (c. albicans GC 3066; Candida albicans, GC3066, read-out: MINIMAL INHIBITORY CONCENTRATION MIC): > 64 µg/mL
- MINIMAL INHIBITORY CONCENTRATION MIC (c. albicans GC 3066; Human Serum): >64 UG/ML
- MINIMAL INHIBITORY CONCENTRATION MIC (c. albicans GC 3066; Mouse Serum): >64 UG/ML
- MIC (E. faecalis GC 2265; GC2265, read-out: MINIMAL INHIBITORY CONCENTRATION MIC, Human Serum): 4 µg/mL (≈ 6.21 µM)
- MIC (E. faecalis GC 2265; GC2265, read-out: MINIMAL INHIBITORY CONCENTRATION MIC, Mouse Serum): 8 µg/mL (≈ 12.4 µM)
- MIC (E. faecalis GC 2265; GC2265, read-out: MINIMAL INHIBITORY CONCENTRATION MIC, Water): 8 µg/mL (≈ 12.4 µM)
- MIC (S. pyogenes GC 4563; GC4563, read-out: MINIMAL INHIBITORY CONCENTRATION MIC, Human Serum): 0.5 µg/mL (≈ 0.777 µM)
- MIC (S. pyogenes GC 4563; GC4563, read-out: MINIMAL INHIBITORY CONCENTRATION MIC, Mouse Serum): 1 µg/mL (≈ 1.55 µM)
- MIC (S. pyogenes GC 4563; GC4563, read-out: MINIMAL INHIBITORY CONCENTRATION MIC, Water): 2 µg/mL (≈ 3.11 µM)
- MIC (S. aureus GC 2216; GC2216, read-out: MINIMAL INHIBITORY CONCENTRATION MIC, Human Serum): 2 µg/mL (≈ 3.11 µM)
- MIC (S. aureus GC 2216; GC2216, read-out: MINIMAL INHIBITORY CONCENTRATION MIC, Mouse Serum): 2 µg/mL (≈ 3.11 µM)
- MIC (S. aureus GC 2216; GC2216, read-out: MINIMAL INHIBITORY CONCENTRATION MIC, Water): 4 µg/mL (≈ 6.21 µM)
- MIC (E. coli GC 4559; GC4559, read-out: MINIMAL INHIBITORY CONCENTRATION MIC, Human Serum): > 64 µg/mL
- MIC (E. coli GC 4559; GC4559, read-out: MINIMAL INHIBITORY CONCENTRATION MIC, Mouse Serum): > 64 µg/mL
- MIC (E. coli GC 4559; GC4559, read-out: MINIMAL INHIBITORY CONCENTRATION MIC, Water): > 64 µg/mL
- MIC (E. coli GC 3226; GC3226, read-out: MINIMAL INHIBITORY CONCENTRATION MIC, Human Serum): > 64 µg/mL
- MIC (E. coli GC 3226; GC3226, read-out: MINIMAL INHIBITORY CONCENTRATION MIC, Mouse Serum): > 64 µg/mL
- MIC (E. coli GC 3226; GC3226, read-out: MINIMAL INHIBITORY CONCENTRATION MIC, Water): > 64 µg/mL
- MIC (E. faecalis GC 2242; GC2242, read-out: MINIMAL INHIBITORY CONCENTRATION MIC, Human Serum): 4 µg/mL (≈ 6.21 µM)
- MIC (E. faecalis GC 2242; GC2242, read-out: MINIMAL INHIBITORY CONCENTRATION MIC, Mouse Serum): 8 µg/mL (≈ 12.4 µM)
- MIC (E. faecalis GC 2242; GC2242, read-out: MINIMAL INHIBITORY CONCENTRATION MIC, Water): 8 µg/mL (≈ 12.4 µM)
- MIC (E. coli GC 2270; GC2270, read-out: MINIMAL INHIBITORY CONCENTRATION MIC, Human Serum): > 64 µg/mL
- MIC (E. coli GC 2270; GC2270, read-out: MINIMAL INHIBITORY CONCENTRATION MIC, Mouse Serum): > 64 µg/mL
- MIC (E. coli GC 2270; GC2270, read-out: MINIMAL INHIBITORY CONCENTRATION MIC, Water): > 64 µg/mL
- MIC (S. aureus GC 4536; GC4536, read-out: MINIMAL INHIBITORY CONCENTRATION MIC, Human Serum): 2 µg/mL (≈ 3.11 µM)
- MIC (S. aureus GC 4536; GC4536, read-out: MINIMAL INHIBITORY CONCENTRATION MIC, Mouse Serum): 2 µg/mL (≈ 3.11 µM)
- MIC (S. aureus GC 4536; GC4536, read-out: MINIMAL INHIBITORY CONCENTRATION MIC, Water): 4 µg/mL (≈ 6.21 µM)
- MIC (E. faecium GC 2243; GC2243, read-out: MINIMAL INHIBITORY CONCENTRATION MIC, Human Serum): 2 µg/mL (≈ 3.11 µM)
- MIC (E. faecium GC 2243; GC2243, read-out: MINIMAL INHIBITORY CONCENTRATION MIC, Mouse Serum): 2 µg/mL (≈ 3.11 µM)
- MIC (E. faecium GC 2243; GC2243, read-out: MINIMAL INHIBITORY CONCENTRATION MIC, Water): 4 µg/mL (≈ 6.21 µM)

From patent publication US20070049564A1 (Wyeth, priority 2005, published 2007)
